Experimental data: the kinase profiling compilation of Christmann-Franck et al. (2016)

How the values were obtained:
Test in all cases: KINOMEscan competition binding
Settings in all cases: compound 10.0 µM
[1] = target: PAK7 (human) (UniProt Q9P286)
[2] = target: INSR (human) (UniProt P06213)
[3] = target: TNK1 (human) (UniProt Q13470)
[4] = target: STK17A (human) (UniProt Q9UEE5)
[5] = target: CAMK1D (human) (UniProt Q8IU85)
[6] = target: CDK9 (human) (UniProt P50750)
[7] = target: STK36 (human) (UniProt Q9NRP7)
[8] = target: PRKG2 (human) (UniProt Q13237)
PRKG2 (human), sequence (Q13237 whole entry, looked up): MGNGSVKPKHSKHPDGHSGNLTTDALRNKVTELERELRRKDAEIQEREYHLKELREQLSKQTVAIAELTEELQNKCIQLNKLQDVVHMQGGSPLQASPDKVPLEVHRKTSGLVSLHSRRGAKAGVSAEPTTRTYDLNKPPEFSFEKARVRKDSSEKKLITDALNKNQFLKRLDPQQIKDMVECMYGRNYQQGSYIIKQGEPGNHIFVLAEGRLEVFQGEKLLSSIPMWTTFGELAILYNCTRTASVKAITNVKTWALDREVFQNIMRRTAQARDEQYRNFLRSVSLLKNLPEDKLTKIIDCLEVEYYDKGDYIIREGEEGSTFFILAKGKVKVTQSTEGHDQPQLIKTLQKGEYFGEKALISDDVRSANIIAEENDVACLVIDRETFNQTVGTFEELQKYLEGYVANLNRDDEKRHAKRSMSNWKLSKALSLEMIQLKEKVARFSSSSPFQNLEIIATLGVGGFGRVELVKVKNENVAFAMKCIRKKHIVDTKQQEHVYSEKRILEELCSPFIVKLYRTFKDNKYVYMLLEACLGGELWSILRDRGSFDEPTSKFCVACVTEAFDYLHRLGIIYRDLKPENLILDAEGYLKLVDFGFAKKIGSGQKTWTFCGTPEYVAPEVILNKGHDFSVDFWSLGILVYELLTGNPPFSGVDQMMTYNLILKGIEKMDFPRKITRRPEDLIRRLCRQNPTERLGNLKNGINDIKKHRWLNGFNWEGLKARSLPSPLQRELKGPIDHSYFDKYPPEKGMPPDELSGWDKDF

[9] = target: CAMK2G (human) (UniProt Q13555)
[10] = target: MAP3K3 (human) (UniProt Q99759)
[11] = target: NEK1 (human) (UniProt Q96PY6)
[12] = target: AURKA (human) (UniProt O14965)
[13] = target: TAOK3 (human) (UniProt Q9H2K8)
[14] = target: CDK8 (human) (UniProt P49336)
[15] = target: MAPK8 (human) (UniProt P45983)
[16] = target: RPS6KB1 (human) (UniProt P23443)
[17] = target: TLK2 (human) (UniProt Q86UE8)
[18] = target: MATK (human) (UniProt P42679)
[19] = target: CDK14 (human) (UniProt O94921)
[20] = target: PLK4 (human) (UniProt O00444)
[21] = target: CAMK2A (human) (UniProt Q9UQM7)
[22] = target: CIT (human) (UniProt O14578)
[23] = target: TSSK1B (human) (UniProt Q9BXA7)
[24] = target: PIP4K2C (human) (UniProt Q8TBX8)
PIP4K2C (human), sequence (Q8TBX8 whole entry, looked up): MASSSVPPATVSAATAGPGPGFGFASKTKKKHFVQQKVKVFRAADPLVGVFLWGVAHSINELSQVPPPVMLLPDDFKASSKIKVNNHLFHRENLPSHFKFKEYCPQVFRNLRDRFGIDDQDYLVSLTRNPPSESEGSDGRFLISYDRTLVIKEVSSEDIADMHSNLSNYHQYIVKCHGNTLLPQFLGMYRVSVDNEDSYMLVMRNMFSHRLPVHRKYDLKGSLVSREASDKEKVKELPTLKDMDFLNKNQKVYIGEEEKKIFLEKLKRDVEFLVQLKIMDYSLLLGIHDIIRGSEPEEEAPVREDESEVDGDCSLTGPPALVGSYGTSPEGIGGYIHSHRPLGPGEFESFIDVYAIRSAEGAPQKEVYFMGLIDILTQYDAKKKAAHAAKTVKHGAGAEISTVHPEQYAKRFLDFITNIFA

[25] = target: TNIK (human) (UniProt Q9UKE5)
[26] = target: FGFR1 (human) (UniProt P11362)
[27] = target: CDK17 (human) (UniProt Q00537)
CDK17 (human), sequence (Q00537 whole entry, looked up): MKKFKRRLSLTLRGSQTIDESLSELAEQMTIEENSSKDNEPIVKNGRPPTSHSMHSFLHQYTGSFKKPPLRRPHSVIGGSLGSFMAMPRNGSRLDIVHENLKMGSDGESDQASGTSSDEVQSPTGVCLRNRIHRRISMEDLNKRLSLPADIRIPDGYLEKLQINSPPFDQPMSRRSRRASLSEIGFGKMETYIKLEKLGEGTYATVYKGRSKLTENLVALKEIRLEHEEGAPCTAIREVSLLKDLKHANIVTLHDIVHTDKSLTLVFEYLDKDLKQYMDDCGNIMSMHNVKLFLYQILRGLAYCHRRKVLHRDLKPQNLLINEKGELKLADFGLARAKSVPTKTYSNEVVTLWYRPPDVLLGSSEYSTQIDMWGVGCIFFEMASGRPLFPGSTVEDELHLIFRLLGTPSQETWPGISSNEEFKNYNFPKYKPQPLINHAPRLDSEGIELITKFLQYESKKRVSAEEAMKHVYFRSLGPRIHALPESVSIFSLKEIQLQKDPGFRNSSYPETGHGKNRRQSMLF

[28] = target: KIT (human) (UniProt P10721)
[29] = target: STK10 (human) (UniProt O94804)
[30] = target: DCLK1 (human) (UniProt O15075)
[31] = target: HIPK3 (human) (UniProt Q9H422)
[32] = target: HIPK1 (human) (UniProt Q86Z02)
[33] = target: RPS6KA3 KD1 (human) (UniProt P51812)
[34] = target: PLK1 (human) (UniProt P53350)
[35] = target: CLK3 (human) (UniProt P49761)
[36] = target: SBK1 (human) (UniProt Q52WX2)
[37] = target: PRKCI (human) (UniProt P41743)
PRKCI (human), sequence (P41743 whole entry, looked up): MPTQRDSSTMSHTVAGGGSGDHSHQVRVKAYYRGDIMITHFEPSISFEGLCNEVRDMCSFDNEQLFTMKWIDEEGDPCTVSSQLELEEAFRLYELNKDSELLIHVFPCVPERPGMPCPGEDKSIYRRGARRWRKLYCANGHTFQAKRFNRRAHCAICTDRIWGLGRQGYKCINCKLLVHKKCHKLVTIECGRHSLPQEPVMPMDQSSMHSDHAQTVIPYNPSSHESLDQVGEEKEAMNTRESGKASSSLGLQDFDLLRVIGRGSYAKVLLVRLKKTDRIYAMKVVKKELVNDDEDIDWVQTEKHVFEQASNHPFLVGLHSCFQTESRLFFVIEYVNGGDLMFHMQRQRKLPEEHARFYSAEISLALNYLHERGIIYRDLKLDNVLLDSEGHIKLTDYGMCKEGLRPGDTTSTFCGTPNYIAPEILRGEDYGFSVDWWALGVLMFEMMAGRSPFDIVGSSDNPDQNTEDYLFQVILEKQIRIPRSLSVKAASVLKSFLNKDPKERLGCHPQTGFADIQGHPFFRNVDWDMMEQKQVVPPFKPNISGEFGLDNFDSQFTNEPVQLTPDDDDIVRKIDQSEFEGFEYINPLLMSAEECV

[38] = target: MYO3B (human) (UniProt Q8WXR4)
[39] = target: PIK3CG (human) (UniProt P48736)
[40] = target: LRRK2 (human) (UniProt Q5S007)
LRRK2 (human), sequence (Q5S007 whole entry, looked up): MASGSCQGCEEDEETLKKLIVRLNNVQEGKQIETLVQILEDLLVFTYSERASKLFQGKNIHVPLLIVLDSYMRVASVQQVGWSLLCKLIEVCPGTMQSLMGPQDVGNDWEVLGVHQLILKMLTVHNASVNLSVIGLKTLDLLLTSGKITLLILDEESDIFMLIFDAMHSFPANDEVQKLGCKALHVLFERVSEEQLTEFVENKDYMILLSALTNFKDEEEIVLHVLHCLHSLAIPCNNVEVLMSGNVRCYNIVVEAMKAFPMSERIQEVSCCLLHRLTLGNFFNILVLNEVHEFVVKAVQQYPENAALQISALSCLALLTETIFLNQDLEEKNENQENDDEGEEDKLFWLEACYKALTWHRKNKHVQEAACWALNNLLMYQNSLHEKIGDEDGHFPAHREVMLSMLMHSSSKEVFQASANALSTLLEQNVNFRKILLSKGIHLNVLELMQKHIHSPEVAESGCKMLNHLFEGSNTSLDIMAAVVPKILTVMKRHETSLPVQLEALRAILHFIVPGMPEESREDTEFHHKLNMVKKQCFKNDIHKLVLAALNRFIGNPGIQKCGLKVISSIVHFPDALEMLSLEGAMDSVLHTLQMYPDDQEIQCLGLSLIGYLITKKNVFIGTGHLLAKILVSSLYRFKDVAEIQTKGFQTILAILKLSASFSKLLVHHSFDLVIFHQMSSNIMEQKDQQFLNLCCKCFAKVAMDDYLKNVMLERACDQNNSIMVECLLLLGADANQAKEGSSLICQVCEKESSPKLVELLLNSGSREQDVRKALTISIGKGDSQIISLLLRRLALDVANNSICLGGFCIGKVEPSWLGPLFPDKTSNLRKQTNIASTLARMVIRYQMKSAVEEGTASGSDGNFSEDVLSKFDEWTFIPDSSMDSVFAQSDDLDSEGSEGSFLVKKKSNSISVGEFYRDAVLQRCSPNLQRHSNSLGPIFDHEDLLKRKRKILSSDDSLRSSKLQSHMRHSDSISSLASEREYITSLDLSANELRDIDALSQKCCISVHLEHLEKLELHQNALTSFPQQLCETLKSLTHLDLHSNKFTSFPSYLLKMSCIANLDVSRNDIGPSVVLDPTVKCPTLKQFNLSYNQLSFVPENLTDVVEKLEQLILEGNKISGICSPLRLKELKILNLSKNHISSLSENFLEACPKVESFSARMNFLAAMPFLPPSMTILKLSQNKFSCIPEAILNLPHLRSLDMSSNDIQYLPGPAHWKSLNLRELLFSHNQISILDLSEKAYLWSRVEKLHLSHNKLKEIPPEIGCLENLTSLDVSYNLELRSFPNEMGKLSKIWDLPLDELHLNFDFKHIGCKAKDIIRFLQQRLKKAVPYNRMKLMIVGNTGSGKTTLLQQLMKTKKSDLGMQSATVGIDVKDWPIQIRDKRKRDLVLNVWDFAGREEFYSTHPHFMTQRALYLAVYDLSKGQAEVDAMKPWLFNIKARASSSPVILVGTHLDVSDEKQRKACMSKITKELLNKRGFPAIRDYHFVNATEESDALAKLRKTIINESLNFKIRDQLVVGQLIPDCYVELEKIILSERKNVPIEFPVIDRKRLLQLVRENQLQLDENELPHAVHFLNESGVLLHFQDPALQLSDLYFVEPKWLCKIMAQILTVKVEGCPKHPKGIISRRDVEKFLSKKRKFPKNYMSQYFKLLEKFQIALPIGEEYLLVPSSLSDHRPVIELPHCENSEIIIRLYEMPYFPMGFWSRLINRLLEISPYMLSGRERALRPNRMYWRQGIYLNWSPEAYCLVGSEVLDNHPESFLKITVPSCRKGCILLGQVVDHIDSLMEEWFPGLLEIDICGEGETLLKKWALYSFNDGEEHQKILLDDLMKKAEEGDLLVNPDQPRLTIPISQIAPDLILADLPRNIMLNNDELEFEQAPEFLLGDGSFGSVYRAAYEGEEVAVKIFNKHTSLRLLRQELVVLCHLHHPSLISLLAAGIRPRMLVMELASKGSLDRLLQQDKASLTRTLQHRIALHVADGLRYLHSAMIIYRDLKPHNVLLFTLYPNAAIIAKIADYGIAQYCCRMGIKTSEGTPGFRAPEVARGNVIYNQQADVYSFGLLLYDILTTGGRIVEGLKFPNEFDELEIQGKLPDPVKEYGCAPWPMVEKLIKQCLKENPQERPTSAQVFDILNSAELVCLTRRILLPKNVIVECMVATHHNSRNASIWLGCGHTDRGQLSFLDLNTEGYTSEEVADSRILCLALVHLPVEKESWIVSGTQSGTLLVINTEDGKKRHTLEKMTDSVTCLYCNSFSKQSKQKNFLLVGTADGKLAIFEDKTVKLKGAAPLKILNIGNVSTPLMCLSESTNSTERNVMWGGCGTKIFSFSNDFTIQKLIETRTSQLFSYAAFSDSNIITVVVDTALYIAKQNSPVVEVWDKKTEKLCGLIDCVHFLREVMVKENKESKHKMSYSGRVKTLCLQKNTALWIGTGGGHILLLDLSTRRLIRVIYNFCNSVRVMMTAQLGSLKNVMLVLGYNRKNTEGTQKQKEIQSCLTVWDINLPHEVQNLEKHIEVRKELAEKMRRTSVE

SMILES	kinase still bound, per cent of control [1] [%]	kinase still bound, per cent of control [2] [%]	kinase still bound, per cent of control [3] [%]	kinase still bound, per cent of control [4] [%]	kinase still bound, per cent of control [5] [%]	kinase still bound, per cent of control [6] [%]	kinase still bound, per cent of control [7] [%]	kinase still bound, per cent of control [8] [%]	kinase still bound, per cent of control [9] [%]	kinase still bound, per cent of control [10] [%]	kinase still bound, per cent of control [11] [%]	kinase still bound, per cent of control [12] [%]	kinase still bound, per cent of control [13] [%]	kinase still bound, per cent of control [14] [%]	kinase still bound, per cent of control [15] [%]	kinase still bound, per cent of control [16] [%]	kinase still bound, per cent of control [17] [%]	kinase still bound, per cent of control [18] [%]	kinase still bound, per cent of control [19] [%]	kinase still bound, per cent of control [20] [%]	also measured
CN(C)C/C=C/C(=O)Nc1ccc(C(=O)Nc2cccc(Nc3nccc(-c4cccnc4)n3)c2)cc1	52	74	20	6.4	100	90	99	76	76	93	63	11	37	78	1.2	100	100	91	98	29	kinase still bound, per cent of control [21]: 54%; kinase still bound, per cent of control [22]: 38%; kinase still bound, per cent of control [23]: 100%; kinase still bound, per cent of control [24]: 0.8%; kinase still bound, per cent of control [25]: 36%; kinase still bound, per cent of control [26]: 89%; kinase still bound, per cent of control [27]: 92%; kinase still bound, per cent of control [28]: 3.8%; kinase still bound, per cent of control [29]: 100%; kinase still bound, per cent of control [30]: 98%; kinase still bound, per cent of control [31]: 4.2%; kinase still bound, per cent of control [32]: 6%; kinase still bound, per cent of control [33]: 62%; kinase still bound, per cent of control [34]: 100%; kinase still bound, per cent of control [35]: 100%; kinase still bound, per cent of control [36]: 100%; kinase still bound, per cent of control [37]: 100%; kinase still bound, per cent of control [38]: 100%; kinase still bound, per cent of control [39]: 13%; kinase still bound, per cent of control [40]: 100%
CCN1CCN(C(=O)Cc2ccc(Nc3ncc(F)c(Nc4ccc(C(=O)Nc5ccccc5Cl)cc4)n3)cc2)CC1	56	78	1.3	2.6	5.6	73	2.1	62	55	49	17	0.5	69	46	1.7	39	33	100	53	0.25	kinase still bound, per cent of control [21]: 68%; kinase still bound, per cent of control [22]: 27%; kinase still bound, per cent of control [23]: 100%; kinase still bound, per cent of control [24]: 38%; kinase still bound, per cent of control [25]: 45%; kinase still bound, per cent of control [26]: 14%; kinase still bound, per cent of control [27]: 35%; kinase still bound, per cent of control [28]: 1%; kinase still bound, per cent of control [29]: 3.4%; kinase still bound, per cent of control [30]: 74%; kinase still bound, per cent of control [31]: 12%; kinase still bound, per cent of control [32]: 3.2%; kinase still bound, per cent of control [33]: 32%; kinase still bound, per cent of control [34]: 94%; kinase still bound, per cent of control [35]: 23%; kinase still bound, per cent of control [36]: 75%; kinase still bound, per cent of control [37]: 77%; kinase still bound, per cent of control [38]: 100%; kinase still bound, per cent of control [39]: 65%; kinase still bound, per cent of control [40]: 73%
C=CC(=O)Nc1cc(-n2c(=O)ccc3cnc4ccc(-c5cn[nH]c5)cc4c32)ccc1C	95	90	73	100	86	100	79	78	45	91	93	63	47	93	1.9	63	100	100	60	66	kinase still bound, per cent of control [21]: 21%; kinase still bound, per cent of control [22]: 42%; kinase still bound, per cent of control [23]: 87%; kinase still bound, per cent of control [24]: 2.7%; kinase still bound, per cent of control [25]: 47%; kinase still bound, per cent of control [26]: 80%; kinase still bound, per cent of control [27]: 92%; kinase still bound, per cent of control [28]: 65%; kinase still bound, per cent of control [29]: 94%; kinase still bound, per cent of control [30]: 94%; kinase still bound, per cent of control [31]: 48%; kinase still bound, per cent of control [32]: 52%; kinase still bound, per cent of control [33]: 69%; kinase still bound, per cent of control [34]: 80%; kinase still bound, per cent of control [35]: 46%; kinase still bound, per cent of control [36]: 90%; kinase still bound, per cent of control [37]: 99%; kinase still bound, per cent of control [38]: 100%; kinase still bound, per cent of control [39]: 4.2%; kinase still bound, per cent of control [40]: 38%
